Experimental data as given in patent US7928098B2, “Therapeutic and/or preventive agents for a sleep disorder” (Kyowa Hakko Kirin Co., Ltd., priority 2005, dated 2011).

Row | melting point | Compound
1 | 170 to 171 °C | O=C(CN1CCOCC1)Nc1nc(-c2ccco2)c(C(=O)c2ccccn2)s1 [Compound 172, N-[4-(2-Furyl)-5-(pyridin-2-ylcarbonyl)thiazol-2-yl]morpholinoacetamide]
2 | 104 to 106 °C | CC1CCN(CC(=O)Nc2nc(-c3ccco3)c(C(=O)c3ccccn3)s2)CC1 [Compound 174, N-[4-(2-Furyl)-5-(pyridin-2-ylcarbonyl)thiazol-2-yl]-2-(4-methylpiperidino)acetamide]
3 | 188 to 204 °C | O=C(CN1CCC2(CC1)OCCO2)Nc1nc(-c2ccco2)c(C(=O)c2ccccn2)s1 [Compound 177, 2-(1,4-Dioxa-8-azaspiro[4.5]decan-8-yl)-N-[4-(2-furyl)-5-(pyridin-2-ylcarbonyl)thiazol-2-yl]acetamide]
4 | 214 to 220 °C (dec.) | O=C(CN1CCC(N2CCCCC2)CC1)Nc1nc(-c2ccco2)c(C(=O)c2ccccn2)s1 [Compound 178, N-[4-(2-Furyl)-5-(pyridin-2-ylcarbonyl)thiazol-2-yl]-2-(4-piperidinopiperidino)acetamide]
5 | 149 to 150 °C | O=C(CN1CCC(N2CCOCC2)CC1)Nc1nc(-c2ccco2)c(C(=O)c2ccccn2)s1 [Compound 179, N-[4-(2-Furyl)-5-(pyridin-2-ylcarbonyl)thiazol-2-yl]-2-(4-morpholinopiperidino)acetamide]
6 | 142 to 144 °C | CCN1CCN(CC(=O)Nc2nc(-c3ccco3)c(C(=O)c3ccccn3)s2)CC1 [Compound 181, 2-(4-Ethylpiperazin-1-yl)-N-[4-(2-furyl)-5-(pyridin-2-ylcarbonyl)thiazol-2-yl]acetamide]
7 | 154 to 155 °C | CC(C)N1CCN(CC(=O)Nc2nc(-c3ccco3)c(C(=O)c3ccccn3)s2)CC1 [Compound 182, N-[4-(2-Furyl)-5-(pyridin-2-ylcarbonyl)thiazol-2-yl]-2-(4-isopropylpiperazine-1-yl)acetamide]
8 | 170 to 171 °C | CC(=O)N1CCN(CC(=O)Nc2nc(-c3ccco3)c(C(=O)c3ccccn3)s2)CC1 [Compound 183, 2-(4-Acetylpiperazin-1-yl)-N-[4-(2-furyl)-5-(pyridin-2-ylcarbonyl)thiazol-2-yl]acetamide]
9 | 215 to 218 °C | O=C(CN1CCN(c2ccccn2)CC1)Nc1nc(-c2ccco2)c(C(=O)c2ccccn2)s1 [Compound 185, N-[4-(2-Furyl)-5-(pyridin-2-ylcarbonyl)thiazol-2-yl]-2-[4-(2-pyridyl)piperazin-1-yl]acetamide]
10 | 199 to 200 °C | O=C(CN1CCN(c2ncccn2)CC1)Nc1nc(-c2ccco2)c(C(=O)c2ccccn2)s1 [Compound 186, N-[4-(2-Furyl)-5-(pyridin-2-ylcarbonyl)thiazol-2-yl]-2-[4-(2-pyrimidinyl)piperazin-1-yl]acetamide]
11 | 172 to 188 °C | O=C(CN1CCN(C2CCOCC2)CC1)Nc1nc(-c2ccco2)c(C(=O)c2ccccn2)s1 [Compound 187, N-[4-(2-Furyl)-5-(pyridin-2-ylcarbonyl)thiazol-2-yl]-2-[4-(tetrahydropyran-4-yl)piperazin-1-yl]acetamide]
12 | 153 to 155 °C | O=C(CN1CCSC1)Nc1nc(-c2ccco2)c(C(=O)c2ccccn2)s1 [Compound 189, N-[4-(2-Furyl)-5-(pyridin-2-ylcarbonyl)thiazol-2-yl]-2-(1,3-thiazolidin-3-yl)acetamide]
13 | 148 to 149 °C | O=C(CN1CCSCC1)Nc1nc(-c2ccco2)c(C(=O)c2ccccn2)s1 [Compound 190, N-[4-(2-Furyl)-5-(pyridin-2-ylcarbonyl)thiazol-2-yl]-2-thiomorpholinoacetamide]

Further lines, the molecule ahead of its results:

Row | Compound | melting point
14 | C[C@@H]1CN(CC(=O)Nc2nc(-c3ccco3)c(C(=O)c3ccccn3)s2)C[C@H](C)O1 [Compound 173, 2-(cis-2,6-Dimethylmorpholino)-N-[4-(2-furyl)-5-(pyridin-2-ylcarbonyl)thiazol-2-yl]acetamide] | 188 to 191 °C
15 | O=C(CN1CCN(c2ccccc2)CC1)Nc1nc(-c2ccco2)c(C(=O)c2ccccn2)s1 [Compound 184, N-[4-(2-Furyl)-5-(pyridin-2-ylcarbonyl)thiazol-2-yl]-2-(4-phenylpiperazin-1-yl)acetamide] | 203 to 204 °C
16 | COc1cccc(C(=O)c2sc(NC(=O)c3ccncc3)nc2-c2ccco2)n1 [Compound 191, N-[4-(2-Furyl)-5-(6-methoxypyridin-2-ylcarbonyl)thiazol-2-yl]pyridine-4-carboxamide] | 247 to 250 °C
17 | Cc1cccc(C(=O)c2sc(NC(=O)c3ccncc3)nc2-c2ccco2)n1 [Compound 192, N-[4-(2-Furyl)-5-(6-methylpyridin-2-ylcarbonyl)thiazol-2-yl]pyridine-4-carboxamide] | 238 to 241 °C
18 | Cc1ccc(C(=O)c2sc(NC(=O)c3ccncc3)nc2-c2ccco2)nc1 [Compound 202, N-[4-(2-Furyl)-5-(5-methylpyridin-2-ylcarbonyl)thiazol-2-yl]pyridine-4-carboxamide] | 255 to 257 °C
19 | Cc1ccnc(C(=O)c2sc(NC(=O)c3ccncc3)nc2-c2ccco2)c1 [Compound 203, N-[4-(2-Furyl)-5-(4-methylpyridin-2-ylcarbonyl)thiazol-2-yl]pyridine-4-carboxamide] | 240 to 245 °C
20 | O=C(Nc1nc(-c2ccco2)c(C(=O)c2cccnc2)s1)c1ccncc1 [Compound 211, N-[4-(2-Furyl)-5-(pyridin-3-ylcarbonyl)thiazol-2-yl]pyridine-4-carboxamide] | 245 to 248 °C
21 | O=C(c1cccnc1)c1sc(NC(=O)C2CC2)nc1-c1ccco1 [Compound 212, N-[4-(2-Furyl)-5-(pyridin-3-ylcarbonyl)thiazol-2-yl]cyclopropanecarboxamide] | 231 to 233 °C
22 | N#Cc1ccc(C(=O)Nc2nc(-c3ccco3)c(C(=O)c3cccnc3)s2)cc1 [Compound 213, 4-Cyano-N-[4-(2-furyl)-5-(pyridin-3-ylcarbonyl)thiazol-2-yl]benzamide] | 288 to 290 °C
23 | O=C(Nc1nc(-c2ccco2)c(C(=O)c2cccnc2)s1)c1ccco1 [Compound 214, N-[4-(2-Furyl)-5-(pyridin-3-ylcarbonyl)thiazol-2-yl]furan-2-carboxamide] | 234 to 236 °C
24 | Cc1ncccc1C(=O)c1sc(NC(=O)c2ccncc2)nc1-c1ccco1 [Compound 217, N-[4-(2-Furyl)-5-(2-methylpyridin-3-ylcarbonyl)thiazol-2-yl]pyridine-4-carboxamide] | 230 to 234 °C
25 | Cc1ccc(C(=O)c2sc(NC(=O)c3ccncc3)nc2-c2ccco2)cn1 [Compound 220, N-[4-(2-Furyl)-5-(2-methylpyridin-5-ylcarbonyl)thiazol-2-yl]pyridine-4-carboxamide] | 230 to 232 °C (dec.)
26 | Cc1ccc(C(=O)c2sc(NC(=O)c3ccc(C#N)cc3)nc2-c2ccco2)cn1 [Compound 221, 4-Cyano-N-[4-(2-furyl)-5-(2-methylpyridin-5-ylcarbonyl)thiazol-2-yl]benzamide] | 261 to 265 °C
27 | Cc1ccc(C(=O)c2sc(NC(=O)c3ccco3)nc2-c2ccco2)cn1 [Compound 222, N-[4-(2-Furyl)-5-(2-methylpyridin-5-ylcarbonyl)thiazol-2-yl]furan-2-carboxamide] | 197 to 209 °C
